Data reported in ChEMBL document CHEMBL1201862, “PubChem BioAssay data set” (2004).
Calls of active or inactive are those of the source. Cut-off read from the data, not from the text of the source, for most assays here: actives have a measured EC50 and inactives only a lower limit.

Assays:
[1] = target: T1, Corticotropin-releasing factor receptor 2/Corticotropin-releasing factor-binding protein (Homo sapiens, UniProt P24387+Q13324); experiment: activators of CRF receptor 2 with binding protein – uHTS hits, confirmation (AID 602473); type: functional; details: read-out: EC50_Mean
T1 sequence (Q13324 whole entry): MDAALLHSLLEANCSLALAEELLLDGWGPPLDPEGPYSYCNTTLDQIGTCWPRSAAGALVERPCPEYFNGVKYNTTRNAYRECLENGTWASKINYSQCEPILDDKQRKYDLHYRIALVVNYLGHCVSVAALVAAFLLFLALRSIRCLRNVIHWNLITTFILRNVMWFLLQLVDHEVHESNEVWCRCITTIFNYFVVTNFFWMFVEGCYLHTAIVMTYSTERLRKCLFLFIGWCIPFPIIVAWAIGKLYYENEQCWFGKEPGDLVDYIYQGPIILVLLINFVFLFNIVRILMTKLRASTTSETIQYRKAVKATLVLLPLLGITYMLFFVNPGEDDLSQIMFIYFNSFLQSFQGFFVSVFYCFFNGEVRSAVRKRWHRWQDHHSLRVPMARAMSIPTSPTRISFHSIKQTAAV
T1 sequence (P24387 whole entry): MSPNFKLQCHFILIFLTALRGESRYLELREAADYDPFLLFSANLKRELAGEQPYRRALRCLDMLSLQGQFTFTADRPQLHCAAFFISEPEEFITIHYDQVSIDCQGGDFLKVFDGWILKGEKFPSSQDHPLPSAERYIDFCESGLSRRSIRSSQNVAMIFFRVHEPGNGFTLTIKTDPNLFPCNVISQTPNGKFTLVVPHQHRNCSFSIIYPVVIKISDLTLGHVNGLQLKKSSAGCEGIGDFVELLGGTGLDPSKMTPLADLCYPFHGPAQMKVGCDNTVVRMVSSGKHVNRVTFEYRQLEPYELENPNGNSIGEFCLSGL

[2] = target: T1, Corticotropin-releasing factor receptor 2/Corticotropin-releasing factor-binding protein; experiment: Dose Response confirmation of uHTS hits for small molecule antagonists of the CRF-binding protein and CRF-R2 receptor complex.; type: functional; details: read-out: IC50_Mean
[3] = Luminescence Cell-Based Dose Confirmation HTS to Identify Activators of 5'UTR Stem-Loop Driven Alpha-Synuclein mRNA Translation in H4 Neuroglioblastoma Cells. [Related pubchem assays: 1829 (Project Summary), 1814 (Primary HTS)]; type: functional
[4] = Luminescence Cell-Based Dose Response HTS to Identify Activators of Luciferase Translation or Activity in H4 […] Cells. [Related pubchem assays: 1829 (Project Summary), 1814 (Primary HTS)]; type: functional
H4 = experiment: Luminescence Cell-Based Dose Response HTS to Identify Activators of 5'UTR Stem-Loop Driven Prion Protein mRNA Translation in H4 Neuroglioblastoma Cells. [Related pubchem assays: 1829 (Project Summary), 1814 (Primary HTS)]; type: functional; details: Homo sapiens
H9c2 = experiment: cells; type: functional, cell-based; details: Rattus norvegicus, H9c2, Myocardium;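 note: confirmatory concentration-response retest of ultra-high-throughput screening hits for modulation of myocardial damage; cell death induced by hydrogen peroxide oxidative stress; compound pretreatment for 60 min then peroxide exposure for 2 h; potency is for protecting the cells against peroxide damage rather than for killing them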
[5] = Luminescence Cell-Based Dose Confirmation HTS to Identify Inhibitors of Platelet Dense Granule Release. [Related pubchem assays: 1663 (Primary HTS), 1678 (Summary of Project)]; type: functional
[6] = target: Luciferin 4-monooxygenase (Photinus pyralis, UniProt P08659); experiment: inhibition of purified Photinus pyralis luciferase – biochemical, luminescence, dose response (AID 1891)
[7] = NIH-3T3 fibroblast cytotoxicity, dose response, cytotoxicity control, cell-based, fluorescence, Alamar Blue, secondary assay (AID 2327); type: functional;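 note: NIH-3T3 mouse fibroblasts cultured with fluconazole at 8 µg/mL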
[8] = fluconazole-exposed Candida albicans growth modulators – fluorescence, retest, confirmation (AID 2467); type: functional, cell-based
[9] = DRD fibroblast viability loss – cell-based, non-viral oncogenic, luminescence, dose response (AID 1934); type: functional; details: Homo sapiens
BJ [10] = experiment: BJ-TERT fibroblast viability loss – cell-based, RAS-independent, luminescence, dose response (AID 1933); type: functional; details: Homo sapiens
BJ [11] = experiment: BJ-TERT-LT-ST fibroblast viability loss – cell-based, RAS-independent, luminescence, dose response (AID 1935); type: functional; details: Homo sapiens;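 note: BJ fibroblasts immortalized with TERT plus LT and ST oncogenes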
BJ [12] = experiment: cells; type: functional, cell-based; details: Homo sapiens
Protein skinhead-1 = target: T2, Protein skinhead-1 (Caenorhabditis elegans, UniProt P34707); type: functional
T2 sequence (P34707 whole entry): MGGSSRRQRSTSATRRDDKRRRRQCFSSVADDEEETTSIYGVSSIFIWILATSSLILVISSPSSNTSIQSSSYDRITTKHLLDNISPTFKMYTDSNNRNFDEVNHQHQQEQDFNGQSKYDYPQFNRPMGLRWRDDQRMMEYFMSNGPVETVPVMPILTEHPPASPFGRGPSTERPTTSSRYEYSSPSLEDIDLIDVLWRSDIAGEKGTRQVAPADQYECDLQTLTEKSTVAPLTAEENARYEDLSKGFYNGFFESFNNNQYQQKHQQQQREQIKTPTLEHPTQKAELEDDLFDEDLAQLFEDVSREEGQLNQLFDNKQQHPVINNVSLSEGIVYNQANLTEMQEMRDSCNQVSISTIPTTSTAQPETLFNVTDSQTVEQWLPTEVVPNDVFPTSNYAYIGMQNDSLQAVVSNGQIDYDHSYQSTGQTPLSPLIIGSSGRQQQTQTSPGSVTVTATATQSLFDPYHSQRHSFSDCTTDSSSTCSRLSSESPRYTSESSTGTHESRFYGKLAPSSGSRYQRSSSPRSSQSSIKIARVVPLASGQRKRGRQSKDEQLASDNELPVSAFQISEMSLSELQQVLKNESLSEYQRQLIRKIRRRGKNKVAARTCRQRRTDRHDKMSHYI

Streptokinase A = target: T3, Streptokinase A (Streptococcus pyogenes serotype M1, UniProt P10520); experiment: viability-normalized secreted streptokinase activity reduction – plasminogen activation absorbance, OD405, dose response (AID 1914); type: functional, Streptococcus pyogenes M1 GAS;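 note: secreted streptokinase activity via plasminogen activation per viability signal from cell pellet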
T3 sequence (P10520 whole entry): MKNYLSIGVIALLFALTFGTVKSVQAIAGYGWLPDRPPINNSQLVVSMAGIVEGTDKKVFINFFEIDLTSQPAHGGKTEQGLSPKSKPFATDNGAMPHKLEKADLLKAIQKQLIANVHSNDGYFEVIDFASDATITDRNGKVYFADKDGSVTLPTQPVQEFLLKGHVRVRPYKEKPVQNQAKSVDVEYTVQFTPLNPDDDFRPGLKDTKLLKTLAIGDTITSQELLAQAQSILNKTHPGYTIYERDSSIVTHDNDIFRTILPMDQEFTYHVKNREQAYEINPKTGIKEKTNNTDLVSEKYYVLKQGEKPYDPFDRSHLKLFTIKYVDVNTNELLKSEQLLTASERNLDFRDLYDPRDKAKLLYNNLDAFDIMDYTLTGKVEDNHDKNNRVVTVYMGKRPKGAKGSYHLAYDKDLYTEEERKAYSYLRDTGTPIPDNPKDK

[13] = system: Streptococcus sp. 'group A'; experiment: Streptococcus pyogenes SK(-)GAS viability under kanamycin – luminescence, BacTiterGlo, confirmation, counter-screen for streptokinase expression inhibitor project, dose response (AID 1900); type: functional, organism-based
Streptococcus = experiment: GAS UMAA2166 growth inhibition – luminescence, BacTiterGlo, counter-screen for streptokinase expression inhibitor project, dose response (AID 1915); type: functional, organism-based;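 note: potency for reduction of bacterial viability or growth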
[14] = P. falciparum Dd2 growth inhibitors, dose response, SYBR Green, cherry-picked samples (AID 1159567); type: functional, cell-based

Sequence of Luciferin 4-monooxygenase (P08659 whole entry): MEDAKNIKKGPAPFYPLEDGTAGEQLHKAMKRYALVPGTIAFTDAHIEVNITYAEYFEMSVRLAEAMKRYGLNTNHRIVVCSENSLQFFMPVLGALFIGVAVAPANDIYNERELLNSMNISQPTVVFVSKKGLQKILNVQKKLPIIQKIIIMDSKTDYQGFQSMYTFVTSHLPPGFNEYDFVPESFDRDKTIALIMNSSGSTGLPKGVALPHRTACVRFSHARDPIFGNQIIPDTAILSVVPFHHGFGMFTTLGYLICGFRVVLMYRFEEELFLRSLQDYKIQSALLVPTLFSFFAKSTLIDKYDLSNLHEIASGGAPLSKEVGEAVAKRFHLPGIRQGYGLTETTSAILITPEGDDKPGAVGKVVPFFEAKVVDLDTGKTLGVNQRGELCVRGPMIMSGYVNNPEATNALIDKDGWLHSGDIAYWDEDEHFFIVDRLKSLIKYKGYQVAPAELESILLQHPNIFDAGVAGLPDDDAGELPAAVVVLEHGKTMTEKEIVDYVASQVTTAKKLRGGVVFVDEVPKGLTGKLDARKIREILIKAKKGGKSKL

SMILES: COC(=O)c1ccc(OCC(O)CN2C(=O)c3ccccc3S2(=O)=O)cc1 (stereo not drawn)
- EC50 [1]: > 53 µM (inactive)
- IC50 [2]: > 47.1 µM (inactive)

SMILES: O=C(CCc1nc(O)c2ccccc2n1)Nc1nc(-c2cccs2)cs1
- EC50 [3]: 12.5 µM (active)
- EC50 [4]: 15.8 µM (active)
- EC50 (H4): 104 µM (inconclusive)
- IC50 (H9c2): 17.3 µM (active)

SMILES: COc1ccccc1NC(=O)c1cc([N+](=O)[O-])ccc1N1CCOCC1
- EC50 [5]: > 112 µM (not active)
- EC50 [6]: > 112 µM (not active)

SMILES: c1ccc(CN2CCc3nc4ccccc4cc3C2)cc1
- EC50 [3]: 0.215 µM (active)
- EC50 [4]: 33.8 µM (active)
- EC50 (H4): 52.7 µM (active)
- EC50 [7]: > 160 µM (inconclusive)
- EC50 [8]: > 38 µM (not active)

SMILES: CCOc1ccc(NC(=O)CCNS(=O)(=O)c2cccc3nonc23)cc1
- EC50 [1]: > 53 µM (inactive)
- IC50 [2]: > 47.1 µM (inactive)

SMILES: CCCC(=O)Nc1ccc2c(c1)nc(CN1CCN(C(=O)OCC)CC1)n2CC
- EC50 [9]: 18 µM (active)
- EC50 (BJ [10]): 15.4 µM (inconclusive)
- EC50 (BJ [11]): > 75 µM (inconclusive)
- EC50 (BJ [12]): 122 µM (active)

SMILES: CCOC(=O)c1sc(NN=C2C(=O)CC(C)(C)CC2=O)c(C(=O)OCC)c1C
- EC50 [5]: 20.4 µM (active)
- EC50 [6]: > 112 µM (not active)

SMILES: COc1ccc(-c2cc(C(F)F)n3ncc(C(=O)n4ccnc4C)c3n2)cc1
- EC50 [9]: 7.6 µM (active)
- EC50 (BJ [10]): 7.36 µM (inconclusive)
- EC50 (BJ [11]): > 150 µM (inconclusive)
- EC50 (BJ [12]): 15.3 µM (active)

SMILES: COc1ccc(NC(=O)c2cn(CCC#N)nc2-c2ccc([N+](=O)[O-])cc2)cc1
- EC50 [9]: > 150 µM (not active)
- EC50 (BJ [10]): > 150 µM (not active)
- EC50 (BJ [11]): > 150 µM (not active)
- EC50 (BJ [12]): > 150 µM (not active)

SMILES: Cc1noc(/C=C/N(C)C)c1S(=O)(=O)N1CCC(C(=O)Nc2ccc(Cl)cc2)CC1
- EC50 [1]: > 53 µM (inactive)
- IC50 [2]: > 47.1 µM (inactive)

SMILES: c1ccc(-c2cc3nccc(-c4ccccn4)n3n2)cc1
- IC50 (Protein skinhead-1): 47 µM (active)
- EC50 [1]: > 53 µM (inactive)
- IC50 [2]: > 47.1 µM (inactive)

SMILES: COc1ccccc1NC1=NC(=O)/C(=C/c2ccc(N(C)C)cc2)S1
- EC50 [9]: 1.45 µM (active)
- EC50 (BJ [10]): 1.91 µM (active)
- EC50 (BJ [11]): 64.2 µM (inconclusive)
- EC50 (Streptokinase A): > 150 µM (not active)
- EC50 (BJ [12]): 59 µM (active)
- EC50 [13]: 15.1 µM (active)
- EC50 (Streptococcus): 46.7 µM (active)

SMILES: Cn1cc(S(=O)(=O)N2CCCC2)cc1C(=O)N1CCN(c2cccc(Cl)c2)CC1
- EC50 [5]: > 112 µM (not active)
- EC50 [6]: > 112 µM (not active)

SMILES: Cn1c(=O)n(C)c2cc(S(=O)(=O)NCc3ccccc3)ccc21
- EC50 [5]: > 112 µM (not active)
- EC50 [6]: > 112 µM (not active)

SMILES: COc1cc(OC)cc(C(=O)NC2CC3CCC(C2)N3Cc2ccco2)c1 (stereo not drawn)
- EC50 [1]: > 53 µM (inactive)
- IC50 [2]: > 47.1 µM (inactive)

SMILES: O=C(Cc1ccccc1)Nc1nonc1NC(=O)c1ccccc1
- EC50 [7]: > 150 µM (inactive)
- EC50 [8]: 3.18 µM (active)

SMILES: CC(OC(=O)c1ccc(-c2ccc(O)cc2)cc1)C(=O)NC1CCCCC1C (stereo not drawn)
- EC50 [1]: > 53 µM (inactive)
- IC50 [2]: > 47.1 µM (inactive)

SMILES: O=C(Nc1ccc(F)cc1)Nc1ccccc1F
- EC50 [5]: 12.1 µM (active)
- EC50 [6]: 6.85 µM (active)

SMILES: C=CCCC(=O)N1CCC(n2nccc2NC(=O)c2ccc(OC)cc2)CC1
- EC50 [1]: > 53 µM (inactive)
- IC50 [2]: > 47.1 µM (inactive)

SMILES: C=CCN1C(=O)NC(=O)/C(=C(/CC)NCc2ccc3c(c2)OCO3)C1=O
- EC50 [1]: > 53 µM (inactive)
- IC50 [2]: > 47.1 µM (inactive)

SMILES: COc1ccc(C(=O)Nc2ccccc2C(=O)N/N=C/c2ccccc2OC)cc1
- EC50 [5]: 1.11 µM (active)
- EC50 [6]: 0.286 µM (active)

SMILES: COc1ccc(C(=O)Nc2ccccc2C(=O)N/N=C/c2ccco2)cc1
- EC50 [5]: 4.14 µM (active)
- EC50 [6]: 0.329 µM (active)

SMILES: Cc1ccc(-n2nc(C)c(/C=N/c3ccc(S(=O)(=O)Nc4nccs4)cc3)c2O)cc1
- EC50 [9]: 24 µM (active)
- EC50 (BJ [10]): 12.8 µM (active)
- EC50 (BJ [11]): > 150 µM (not active)
- EC50 (BJ [12]): > 150 µM (not active)

SMILES: CC(C)(O)C#Cc1ccc([C@H]2[C@H](CO)N3CCCCN(C(=O)c4ccc(F)cc4)C[C@@H]23)cc1
- AC50 [14]: 15.3 µM (active)

SMILES: COc1cccc(CN2CC3(CN(Cc4ccccn4)C3)c3c([nH]c4cc(OC)ccc34)[C@H]2CO)c1
- AC50 [14]: 5.33 µM (active)

SMILES: CN(C)c1ccc2c(c1)[C@@H]1C[C@H](CC(=O)N3CCc4ccccc4C3)O[C@@H](CO)[C@@H]1O2
- AC50 [14]: 7.8 µM (active)
